Experimental data as given in US12059413B2, “Methods of inhibiting viruses using compositions targeting TSG101-ubiquitin interaction” (The Research Foundation for the State University of New York, priority 2016, dated 2024).

Tests used:
Tsg101 = target: T1, Tsg101 (Homo sapiens, UniProt Q99816); experiment: NWU screening / in vitro binding assay; conditions: Esomeprazole and tenatoprazole compared
T1 sequence (Q99816 2-145 limits assumed): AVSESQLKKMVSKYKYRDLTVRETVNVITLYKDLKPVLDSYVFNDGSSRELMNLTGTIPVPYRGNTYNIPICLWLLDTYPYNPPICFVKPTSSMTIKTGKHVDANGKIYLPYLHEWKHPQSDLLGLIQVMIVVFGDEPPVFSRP
Source text: Pantoprazole, Lansoprazole/Dexlansoprazole (dexlansoprazole is the active enantiomer of the racemic lansoprazole), and Rabeprazole were in the NWU screen but were not considered hits.

HIV-1 NL4-3 = experiment: Viral particle production from 293T cells transfected with pNL4-3, p24 ELISA; assay type: cell-based
Protocol: FIG. 15A-D. N16 inhibits HIV-1 NL4-3 and Gag VLP production. A) Effect on virus production. Virus particles from N16-treated 293T cells transfected with pNL4-3 as determined by ELISA assay. Top, The compound was added 6 hr prior to DNA transfection and tissue culture media was harvested 24 hr later. Bottom, The compound was added at the indicated concentration 24 hr after DNA transfection and tissue culture media was harvested 24 hr later. Assay values were normalized to that of the DMSO carrier control. B) Effect on virus infectivity. Infectious viral particles per ng p24 as determined by MAGI assay. C) Left, Electron microscopy of particles at cell surface at 24 hr post-N16 addition; Right, Quantitative analysis of budding morphologies. Cells expressing WT- or P7L-NL4-3 were exposed to DMSO carrier or 50 μM N16. Arrows indicate emerging ‘Early’ buds. D) Effects on Gag VLP production. Top, Western blot analysis. Cells treated at the indicated concentration were transfected with DNA encoding Gag-HA. At the end of the treatment period, tissue culture media was removed for VLP isolation. […] Bottom, Quantitative analysis. […]
For production of virus particles, 293T cells were transfected with pNL4-3-ΔEnv and pIIIB Env3-1 plasmids and for virus-like particles (VLP), with pCMV-Gag-HA as previously described (Watanabe et al. (2013)). For specific infectivity, media-associated p24 was determined by ELISA (Immunodiagnostics, Inc.) and equivalent amounts of p24 were used to infect HeLa-CD4+-LTR-3 gal cells for infectivity measurement by the multinuclear activation of a galactosidase indicator (MAGI) assay. […] For cell-associated Gag analysis, cell pellets were lysed with either Triton X-100 or RIPA buffer with complete mini protease inhibitor cocktail (Roche) and analyzed by Western blotting. Protein bands were visualized using an infrared-based imaging system (Odyssey, LI-COR Biotechnology) and band intensities measured using the Li-Cor Odyssey software version 2.1.15. Virus particle release efficiency was calculated [VLP signal intensity/(VLP signal intensity+cell lysate signal intensity)]. […]

293T cells = experiment: Metabolic activity, WST-1 assay, 293T cells; assay type: cell-based; conditions: Homo sapiens, HEK-293T; 293T, 24 hr in N16, WST-1; read-out: IC50 (95% confidence levels), metabolic activity
Protocol: FIG. 20A-C. N16 inhibition is virus-specific. A) N16 IC50 for Hela and 293T cells. […] Values were calculated by measuring metabolic activity (WST-1 Assay, Roche Applied Science) after cells were grown for 24 hr in N16. Data points represent the mean of 2 assays, 3 time points each for each cell line. […] Values in the absence or presence of N16 (50 uM) were 12% and 13%, respectively). C) N16 effect on EGF-stimulated EFGR degradation. Cells maintained for 24 hr in media containing DMSO alone or DMSO and N16 were stimulated with EGF ligand for a 90 min period and then assessed for EGFR steady-state level by Western analysis. EGFR levels for unstimulated and stimulated sample pairs are shown. A) n=2; B) n=2; C) n=2.
FIG. 27A-C. Effect of N-Acetyl Cysteine (NAC) on N16-mediated inhibition of VLP production and intracellular Gag accumulation. […] A concentration of 3 mM NAC was therefore used to test the effect of the antioxidative reagent on the N16 inhibitory effect. N16 (0, 12, 25, 50, 75, and 100 uM) was added 8.5 hr prior to transfection with pNL4-3ΔEnv. Cells were harvested 16 hr later. […] C) Quantitative analysis. n=2.
Cells were grown in 96-well trays for 24 hr with increasing levels of drug, metabolic activity was measured using WST-1colorimetric assay (Roche), and IC50 values were calculated (Prism 6, Graph Pad Software Inc.).

| SMILES | binding in the in vitro binding assay (Tsg101) | EC50 (HIV-1 NL4-3; Human immunodeficiency virus 1, NL43, HEK-293T, 6 h, N16 added six hours before transfection, 293T cells) | effect on budding when added 24 hr post-transfection (HIV-1 NL4-3; addition at 24 hr post-transfection, even at higher concentrations) | lowest concentration achieved in tissue culture assays under optimal conditions (HIV-1 NL4-3; c.f. FIG. 15) | IC50 (293T cells) |
| --- | --- | --- | --- | --- | --- |
| COc1ccc2nc([S@@+]([O-])Cc3ncc(C)c(OC)c3C)[nH]c2c1 [F15, esomeprazole] | comparable binding | – | – | – | – |
| COc1ccc2[nH]c([S+]([O-])Cc3ncc(C)c(OC)c3C)nc2n1 (centres unmarked) [N16, tenatoprazole] | – | 25 to 50 µM | little effect | 25 to 50 µM | 99.8 to 139 µM |
